In patent US20150072418A1, “HCV GENOTYPE 4D REPLICONS” (priority 2013, published 2015):

Legend:
GT1b replicon = assay: HCV replicon susceptibility to antiviral agents, GT1b; format: cell-based; settings: Hepatitis C virus, n = 2
Procedure: (§1) All of these HCV inhibitors, as well as any other candidate agents, can be tested with the disclosed methods for their efficacy in inhibiting HCV genotype 4d. The cells are then incubated at a suitable temperature for a period time to allow the replicons to replicate in the cells. The replicons can include a reporter gene such as luciferase and in such a case, at the end of the incubation period, the cells are assayed for luciferase activity as markers for replicon levels. Luciferase expression can be quantified using a commercial luciferase assay.
(§2) Luciferase or NS3 protease activity level is then converted into percentages relative to the levels in the controls which can be untreated or treated with an agent having known activity in inhibiting the HCV.
(§3) Another comparison was made, with respect to each replicon's susceptibility against HCV antiviral agents.

GT4a replicon = assay: HCV replicon susceptibility to antiviral agents, GT4a; format: cell-based; settings: Hepatitis C virus, n = 2
Procedure: as §1, §2, §3

[1] = test system: GT4d (34R + 232G-pool) replicon; assay: HCV replicon susceptibility to antiviral agents, GT4d (34R + 232G-pool); format: cell-based; settings: Hepatitis C virus, GT4d replicon with Q34R + S232G, n = 2
Procedure: as §1, §2
(§4) Stable GT4d subgenomic replicons were prepared to include these double mutations (FIG. 12). Ten micrograms of in vitro transcribed 4d Rluc-Neo RNA were transfected into 1C cells. G418 selection started 2 days after transfection and plates were fixed and stained after 2 weeks of G418 selection. […] The luciferase activity of these stable replicon cells of these replicons were further compared to GT4a replicons and GT1b.
as §3

[2] = test system: GT4d (34R + 232I-pool) replicon; assay: HCV replicon susceptibility to antiviral agents, GT4d (34R + 232I-pool); format: cell-based; settings: Hepatitis C virus, GT4d replicon with Q34R + S232I, n = 2
Procedure: as §1, §2, §4, §3

[3] = test system: GT 4d-Neo replicons (4d-2Re and 4d-3Re), NS3 activity; assay: Inhibition of NS3 activity of GT 4d-Neo replicons from pooled colonies; format: cell-based, Hepatitis C virus; settings: 4d-3Re and 4d-2Re replicon cells; FIG. 3A-B
Description: Alternately, efficacy of the HCV inhibitor can be measured by the expression or activity of the proteins encoded by the replicons. One example of such proteins is the NS3 protease, and detection of the protein expression or activity can be carried out with methods known in the art, e.g., Cheng et al., Antimicrob Agents Chemother 55:2197-205 (2011).
as §2
Two candidate HCV inhibitors, Compound A (FIG. 3A) and B (FIG. 3B) were used to test the inhibition of NS3 activities of the replicons isolated from pooled colonies (4d-2Re and 4d-3Re, see FIG. 2). […] Also observed was that NS3 activity was higher in 4d-3Re than 4d-2Re.
4000 cells/well were plated in 96-well white plates. NS3 activity was read 72 hours after plating. Values shown in FIG. 4 are mean of DMSO treated well from 3 plates.

CC(C)OC(=O)[C@H](C)NP(=O)(OC[C@H]1O[C@@H](n2ccc(=O)[nH]c2=O)[C@](C)(F)[C@@H]1O)Oc1ccccc1 (stereo partly drawn) [Compound A, isopropyl (2S)-2-[[[(2R,3R,4R,5R)-5-(2,4-dioxopyrimidin-1-yl)-4-fluoro-3-hydroxy-4-methyl-tetrahydrofuran-2-yl]methoxy-phenoxy-phosphoryl]amino]propanoate]
EC50 (GT1b replicon): 158 nM | EC50 (GT4a replicon): 70 nM | EC50 [1]: 33 nM | EC50 [2]: 37 nM | inhibition of NS3 activity [3]: dose dependent inhibition
